Tests used:
Assay type in all cases: cell-based
Kato III = experiment: MTS assay (cell growth inhibition), Kato III; settings: Kato III cells, 72 hours incubation with test compound; concentration not given
Method: (§1) Cells were maintained at 37° C., 5% CO2 in DMEM media supplemented with 1% fetal bovine serum, penicillin/streptomycin and fungizone (Invitrogen). Cells were seeded into 96-well tissue culture plates at 3000 per well and cultured at 37° C. for 18 hours. Test compounds were dissolved and diluted to 300× in DMSO then diluted 1:40 in DMEM. Cells were incubated with test compounds for 72 hours followed by incubation with tetrazolium compound (3-(4,5-dimethylthiazol-2-yl)-5-(3-carboxymethoxyphenyl)-2-(4-sulfophenyl)-2H-tetrazolium, inner salt; MTS) and the electron coupling reagent, phenazine methosulfate (PMS) for 4 hours. […] The ability of compounds to inhibit cell growth in this assay is correlated with the reduction of dehydrogenase enzyme activity found in metabolically active cells. The measurement of the absorbance of the formazan was assessed using an ENVISION™ (Perkin Elmer) microplate reader at 492 nm. The calculated IC50 value is the concentration of the test compound that causes a 50% decrease in the absorbance.

PC-3 = experiment: MTS assay (cell growth inhibition), PC-3; settings: PC-3 cells, 72 hours incubation with test compound; concentration not given
Method: as §1

PACA-2 = experiment: MTS assay (cell growth inhibition), PACA-2; settings: PACA-2 cells, 72 hours incubation with test compound; concentration not given
Method: as §1

NCI-H1299 = experiment: MTS assay (cell growth inhibition), NCI-H1299; settings: NCI-H1299 cells, 72 hours incubation with test compound; concentration not given
Method: as §1

MDA-MB = experiment: MTS assay (cell growth inhibition), MDA-MB; settings: MDA-MB cells, 72 hours incubation with test compound; concentration not given
Method: as §1

DLD-1 = experiment: MTS assay (cell growth inhibition), DLD-1; settings: DLD-1 cells, 72 hours incubation with test compound; concentration not given
Method: as §1

| Compound | MTS CELL KILL DATA (% INHIBITION) Kato III (Kato III) | MTS CELL KILL DATA (% INHIBITION) PC-3 (PC-3) | MTS CELL KILL DATA (% INHIBITION) PACA-2 (PACA-2) | MTS CELL KILL DATA (% INHIBITION) NCI-H1299 (NCI-H1299) | MTS CELL KILL DATA (% INHIBITION) MDA-MB (MDA-MB) | MTS CELL KILL DATA (% INHIBITION) DLD-1 (DLD-1) |
| --- | --- | --- | --- | --- | --- | --- |
| COc1cccc(CN2C(=O)c3cnc4[nH]ncc4c3C2=O)c1OC [Example 92, 7-(2,3-dimethoxybenzyl)pyrazolo[3,4-b]pyrrolo[3,4-d]pyridine-6,8(3H,7H)-dione] | C (C = <50% INHIBITION) | C (C = <50% INHIBITION) | C (C = <50% INHIBITION) | C (C = <50% INHIBITION) | C (C = <50% INHIBITION) | C (C = <50% INHIBITION) |
| O=C1c2cnc3[nH]ncc3c2C(=O)N1Cc1cccnc1 [Example 38, 7-(pyridin-3-ylmethyl)pyrazolo[3,4-b]pyrrolo[3,4-d]pyridine-6,8(3H,7H)-dione] | A (A = 80-100% INHIBITION) | C (C = <50% INHIBITION) | A (A = 80-100% INHIBITION) | C (C = <50% INHIBITION) | A (A = 80-100% INHIBITION) | A (A = 80-100% INHIBITION) |
| CC(C)OCCN1C(=O)c2cnc3[nH]ncc3c2C1=O [Example 16, 7-(2-isopropoxyethyl)pyrazolo[3,4-b]pyrrolo[3,4-d]pyridine-6,8(3H,7H)-dione] | C (C = <50% INHIBITION) | C (C = <50% INHIBITION) | B (B = 50-79% INHIBITION) | C (C = <50% INHIBITION) | B (B = 50-79% INHIBITION) | C (C = <50% INHIBITION) |
| CCCCN(CCCC)CCN1C(=O)c2cnc3[nH]ncc3c2C1=O [Example 18, 7-[2-(dibutylamino)ethyl]pyrazolo[3,4-b]pyrrolo[3,4-d]pyridine-6,8(3H,7H)-dione] | C (C = <50% INHIBITION) | A (A = 80-100% INHIBITION) | C (C = <50% INHIBITION) | C (C = <50% INHIBITION) | A (A = 80-100% INHIBITION) | C (C = <50% INHIBITION) |
| O=C1c2cnc3[nH]nc(-c4cncnc4)c3c2C(=O)N1CCc1ccccc1 [Example 151, 7-(2-phenylethyl)-1-pyrimidin-5-ylpyrazolo[3,4-b]pyrrolo[3,4-d]pyridine-6,8(3H,7H)-dione] | A (A = 80-100% INHIBITION) | B (B = 50-79% INHIBITION) | A (A = 80-100% INHIBITION) | C (C = <50% INHIBITION) | C (C = <50% INHIBITION) | A (A = 80-100% INHIBITION) |
| CC(C)(C)c1ccc(-c2n[nH]c3ncc4c(c23)C(=O)N(CCc2ccccc2)C4=O)cc1 [Example 166, 1-(4-tert-butylphenyl)-7-(2-phenylethyl)pyrazolo[3,4-b]pyrrolo[3,4-d]pyridine-6,8(3H,7H)-dione] | C (C = <50% INHIBITION) | C (C = <50% INHIBITION) | B (B = 50-79% INHIBITION) | C (C = <50% INHIBITION) | A (A = 80-100% INHIBITION) | A (A = 80-100% INHIBITION) |
| O=C1c2cnc3[nH]ncc3c2C(=O)N1CCc1ccncc1 [Example 36, 7-(2-pyridin-4-ylethyl)pyrazolo[3,4-b]pyrrolo[3,4-d]pyridine-6,8(3H,7H)-dione] | C (C = <50% INHIBITION) | A (A = 80-100% INHIBITION) | B (B = 50-79% INHIBITION) | C (C = <50% INHIBITION) | A (A = 80-100% INHIBITION) | C (C = <50% INHIBITION) |
| CC(C)(C)c1ccc(CN2C(=O)c3cnc4[nH]ncc4c3C2=O)cc1 [Example 47, 7-(4-tert-butylbenzyl)pyrazolo[3,4-b]pyrrolo[3,4-d]pyridine-6,8(3H,7H)-dione,] | C (C = <50% INHIBITION) | C (C = <50% INHIBITION) | C (C = <50% INHIBITION) | C (C = <50% INHIBITION) | C (C = <50% INHIBITION) | C (C = <50% INHIBITION) |
| C[C@@H](CN1C(=O)c2cnc3[nH]ncc3c2C1=O)c1ccccc1 [Example 82, 7-[(2R)-2-phenylpropyl]pyrazolo[3,4-b]pyrrolo[3,4-d]pyridine-6,8(3H,7H)-dione] | C (C = <50% INHIBITION) | A (A = 80-100% INHIBITION) | C (C = <50% INHIBITION) | C (C = <50% INHIBITION) | A (A = 80-100% INHIBITION) | C (C = <50% INHIBITION) |
| CC(CCN1C(=O)c2cnc3[nH]ncc3c2C1=O)c1ccccc1 (stereo not drawn) [Example 53, 7-(3-phenylbutyl)pyrazolo[3,4-b]pyrrolo[3,4-d]pyridine-6,8(3H,7H)-dione] | C (C = <50% INHIBITION) | A (A = 80-100% INHIBITION) | A (A = 80-100% INHIBITION) | C (C = <50% INHIBITION) | A (A = 80-100% INHIBITION) | C (C = <50% INHIBITION) |
| CCCC(CCC)CN1C(=O)c2cnc3[nH]ncc3c2C1=O [Example 63, 7-(2-propylpentyl)pyrazolo[3,4-b]pyrrolo[3,4-d]pyridine-6,8(3H,7H)-dione] | C (C = <50% INHIBITION) | A (A = 80-100% INHIBITION) | A (A = 80-100% INHIBITION) | C (C = <50% INHIBITION) | A (A = 80-100% INHIBITION) | C (C = <50% INHIBITION) |
| Cc1c(C)c(C)c(CN2C(=O)c3cnc4[nH]ncc4c3C2=O)c(C)c1C [Example 8, 7-(pentamethylbenzyl)pyrazolo[3,4-b]pyrrolo[3,4-d]pyridine-6,8(3H,7H)-dione] | C (C = <50% INHIBITION) | A (A = 80-100% INHIBITION) | C (C = <50% INHIBITION) | C (C = <50% INHIBITION) | B (B = 50-79% INHIBITION) | C (C = <50% INHIBITION) |
| O=C1c2cnc3[nH]ncc3c2C(=O)N1CCSc1nc2ccccc2s1 [Example 32, 7-[2-(1,3-benzothiazol-2-ylthio)ethyl]pyrazolo[3,4-b]pyrrolo[3,4-d]pyridine-6,8(3H,7H)-dione] | B (B = 50-79% INHIBITION) | A (A = 80-100% INHIBITION) | C (C = <50% INHIBITION) | C (C = <50% INHIBITION) | C (C = <50% INHIBITION) | C (C = <50% INHIBITION) |
| O=C1c2cnc3[nH]ncc3c2C(=O)N1Cc1ccccc1Br [Example 99, 7-(2-bromobenzyl)pyrazolo[3,4-b]pyrrolo[3,4-d]pyridine-6,8(3H,7H)-dione] | C (C = <50% INHIBITION) | C (C = <50% INHIBITION) | C (C = <50% INHIBITION) | C (C = <50% INHIBITION) | C (C = <50% INHIBITION) | C (C = <50% INHIBITION) |

From patent US8906928B2, “Substituted pyrazolo-pyrrolo-pyridine-dione compounds” (ArQule, Inc., priority 2009, dated 2014)
